Assay results reported in paper PMC6290777, “Inhalation of the prodrug PI3K inhibitor CL27c improves lung function in asthma and fibrosis” (Nature Communications, 2018).

Assays:
PBMCs = PBMCs proliferation (MTT); format: cell-based, human
Procedure: PBMCs in RPMI medium were seeded in a 96-well tissue culture plates at 5 × 10^3 cells/well (Cell Star, Frickenhausen, Germany). PBMCs were activated with vehicle (PBS) or anti-CD3 (5 μg/mL) plus soluble anti-CD28 (2 μg/mL) mAbs (BD Pharmingen, San Jose, CA, USA). Then, the cells were incubated at 37 °C and 5% CO2 for 48 h. Cell proliferation was assayed by MTT (3-(4,5-dimethylthiazol-2-yl)-2,5-diphenyltetrazolium bromide) assay (Roche Life Science, Mannheim, BW, Germany) following the manufacturer’s instructions. Briefly, 10 μL of MTT (3 mg/mL) was added to each well containing cells in 100 μL medium and incubated for 2 h at 37 °C. Then, 100 μL of lysis buffer was added allowing the dissolution of formazan crystals. After 15 min at room temperature the absorbance was read at 560 nm with reference of 690 nm using GloMax®-Multi Microplate Multimode Reader (Promega, Madison, Wisconsin, EUA).

[1] = system: human lung fibroblasts (HLF); test: Cell survival of human lung fibroblasts (CellTiter-Glo); format: cell-based; details: TGF-β 10 ng/ml, 48 hours; CL27c 1 and 10 µM
Procedure: Human lung fibroblast cell culture
Two separate human lung fibroblast cell lines isolated from IPF patients were used: LL97a derived from a person (ATCC, Manassas, USA) and DHLF-IPF (#CC-7231, Lonza, Switzerland). Control cell lines were CCD-16Lu, obtained from a person that died of astrocytoma –a disease unrelated to IPF - (ATCC) and NHLF (#CC-2512; Lonza). LL97a and CCD-16Lu cells were cultured in Dulbecco's modified Eagles medium (DMEM, Sigma Aldrich, Dorset, UK). Media was supplemented with penicillin/streptomycin (100 U/ml, Thermo-Fischer, Germany) and 10% fetal bovine serum (FBS, Thermo-Fischer, Germany). Cells from Lonza were cultured in the FGMTM (#CC-3132, Lonza). […]
Caliper based assay, the reaction was terminated by addition of EDTA buffer. Substrate and product were separated and quantified electrophoretically using the microfluidic-based and the assay plate was read on Caliper LabChip 3000 Drug Discovery System from Caliper Life Sciences (Walthan, MA, USA). ADP Glo was another method of detection used for some kinase assays where data was obtained by quantifying the intensity of luminescence. For ADP Glo based assay, the reaction was terminated by applying the Promega ADP Glo Kinase Assay kit and the assay plate was read on a LJL Biosystems Analyst HT. […]

[2] = system: Akt phosphorylation (Ser473) in lung, heart, liver; test: Insulin stimulation analysis in liver, heart, and lung (pAkt); format: in vivo, mice; details: inhaled CL27c 2 mg/ml 30 min; insulin 1 UI/kg i.p.
Procedure: Animals were fasted overnight and, the day after, they were treated for 30 min with aerosolized CL27c (2 mg/ml in 0.5 % tylaxopol/saline solution). After 1 h from the CL27c treatment mice were administrated with insulin (1.0 UI kg^−1 diluted in PBS solution, Actrapid, Novo Nordisk, i.p. injection). Ten min after injection, the animals where sacrificed and tissues removed, frozen in liquid nitrogen, and homogenized in lysis buffer (50 mM Tris-HCl, pH = 8, 150 mM NaCl, 1% Triton X-100) supplemented with 50 mM NaF, 2 mM sodium orthovanadate, 1 mM sodium pyro-phosphate, and protease inhibitor cocktail (Roche).
Lung, liver, and heart samples were collected for western blot detection of akt phosphorilation levels. Protein samples were resolved by 10% SDS-PAGE and transferred on to PVDF (Immobilon™-P) membranes. The membranes were blocked with 5% BSA in 1x TBS with 0.3% Tween 20 for 30 min at […]. Then, the membranes were incubated overnight at 4 °C with primary antibodies (phosphorylated Akt serine 473, 1:1000, Cell Signaling Technology, Cat. Number 4060) and 1 h with HRP-conjugated secondary antibody (1:10000). […] For quantification, specific phosphorylation was calculated as the ratio of signals for phosphorylated Akt to the signal of total Akt detected. […]

COC(=O)c1cccc(Cn2cc(-c3cccc4c(=O)cc(N5CCOCC5)[nH]c34)nn2)c1 [CL27c]
anti-proliferative effect on PBMC relative to dexamethasone (PBMCs; CL27c 5 μM): comparable to the reference compound dexamethasone
proliferation of PBMC (PBMCs; stimulated with antibodies against CD28, CL27c 0.5 and 5 µM, concentration-dependent): block proliferation
survival of HLF lines [1]: reduced survival at 1 and 10 µM
insulin-evoked Akt phosphorylation (Ser473) in lungs [2]: did not show elevation of protein kinase B (Akt) phosphorylation
insulin-evoked Akt phosphorylation in heart or liver [2]: insulin was able to normally increase Akt phosphorylation
